Assay results: PMC10950204 (Journal of medicinal chemistry, 2024)
Read-outs that look alike come from different tables or passages of the source.

Legend:
HepG2 = experiment: MTS-based cytotoxicity assay; assay type: cell-based, human
P. falciparum 3D7 = experiment: SYBR Green I-based proliferation assay, ring stage parasites; conditions: read-out: Antiplasmodial Activity 3D7 EC50, 72 h
P. falciparum Dd2 [1] = experiment: as above; conditions: for fold loss of antiplasmodial potency: relative to compound 1; for further decrease in the potency: on removing the nitrogen from pyridine / thiophenylpyridine
MCF7 = experiment: MTS-based cytotoxicity assay; assay type: cell-based, human
Synchronized Dd2 culture = experiment: Stage specific assay, YOYO-1 flow cytometry and microscopy; assay type: cell-based, P. falciparum
P. falciparum Dd2-B2 = experiment: Minimum inoculum of resistance; assay type: cell-based; conditions: 3 × EC10, monitored 50 days
P. falciparum Dd2 [2] = experiment: SYBR Green I-based proliferation assay, asynchronous blood stage cultures; conditions: compared to compound 5, Dd2
[3] = test system: P. falciparum 3D7 blood-stage parasites; experiment: Parasite reduction ratio; conditions: 10 × EC50, ring stage
[4] = test system: P. falciparum strains 3D7, IPC 5188, IPC 5202, IPC 6261; experiment: Ring stage survival assay; conditions: 10 × EC50 for 6 h, survival at 72 h, all strains
[5] = In vitro metabolic stability in mouse liver microsomes; assay type: in vitro ADME
Caco-2 cells = experiment: Caco-2 permeability; assay type: in vitro ADME; conditions: Table S1, Caco-2
[6] = test system: panel of 468 kinases (403 nonmutant kinases); experiment: KINOMEscan Profiling Service, binding at 1 μM; parameters: species or system human; conditions: screened at 1 μM
[7] = test system: P. falciparum strains 3D7, IPC 5188, IPC 5202, IPC 6261; experiment: Piperaquine survival assay; conditions: 10 × EC50 for 48 h, regardless of strain
[8] = test system: asynchronous Dd2 cultures; experiment: Rate of killing assay, flow cytometry-based; conditions: 10 × EC50 for as little as 12 h, washed, monitored 4 days
[9] = test system: P. falciparum strains 3D7, IPC 5188, IPC 5202, IPC 6261; experiment: EC50 determination in artemisinin and piperaquine resistant isolates; conditions: all strains, Figure 4C
human EphA2 = human EphA2 (Homo sapiens, UniProt P29317); experiment: SelectScreen kinase profiling, in vitro FRET-based assay; assay type: biochemical; conditions: compared to compound 5
[10] = test system: P. falciparum lines AcAS A597 V, CARL I1139K, PI4K S1320L; experiment: Cross resistance evaluation, SYBR Green I assay; assay type: cell-based; conditions: PI4K mutant lines
[11] = Kinetic solubility, miniaturized shake-flask method; assay type: physicochemical; conditions: Table S1, 1× PBS pH 7.4
[12] = cited from earlier work
ring stage = conditions: read-out: ring stage EC50; cited from earlier work

Chain of human EphA2 (P29317 24-976): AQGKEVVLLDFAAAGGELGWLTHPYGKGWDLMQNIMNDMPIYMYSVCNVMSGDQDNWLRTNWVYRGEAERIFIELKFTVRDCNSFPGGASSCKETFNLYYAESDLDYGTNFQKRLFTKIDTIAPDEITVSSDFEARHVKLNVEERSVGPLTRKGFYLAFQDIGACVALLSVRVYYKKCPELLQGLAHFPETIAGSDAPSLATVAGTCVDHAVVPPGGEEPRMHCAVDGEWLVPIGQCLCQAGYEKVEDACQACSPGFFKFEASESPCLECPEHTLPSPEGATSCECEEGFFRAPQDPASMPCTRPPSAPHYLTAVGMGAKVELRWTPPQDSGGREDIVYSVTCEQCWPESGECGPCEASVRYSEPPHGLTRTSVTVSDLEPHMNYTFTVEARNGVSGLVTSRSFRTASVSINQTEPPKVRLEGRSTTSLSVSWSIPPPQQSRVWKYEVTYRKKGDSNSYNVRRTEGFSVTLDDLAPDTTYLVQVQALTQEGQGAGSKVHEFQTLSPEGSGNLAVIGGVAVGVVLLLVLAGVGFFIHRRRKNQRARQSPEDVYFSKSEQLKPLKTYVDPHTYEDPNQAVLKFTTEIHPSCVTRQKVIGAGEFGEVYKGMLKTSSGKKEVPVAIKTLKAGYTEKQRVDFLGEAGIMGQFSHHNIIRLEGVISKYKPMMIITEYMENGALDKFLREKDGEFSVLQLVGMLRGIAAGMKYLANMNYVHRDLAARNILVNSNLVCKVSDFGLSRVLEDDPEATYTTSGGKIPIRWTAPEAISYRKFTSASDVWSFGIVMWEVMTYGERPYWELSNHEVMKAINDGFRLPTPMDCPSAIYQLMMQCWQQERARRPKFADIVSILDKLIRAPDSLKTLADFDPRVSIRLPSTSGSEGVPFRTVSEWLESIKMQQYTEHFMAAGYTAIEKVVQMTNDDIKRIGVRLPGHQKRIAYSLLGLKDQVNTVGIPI

## 3-Amino-N-(4-((4-ethylpiperazin-1-yl)methyl)-3-(trifluoromethyl)phenyl)-5-methylbenzamide [Compound 28]
HepG2
  EC50: 3200 ± 238 nM
HepG2; HepG2 EC50/P. falciparum Dd2 EC50
  Selectivity Index (SI) HepG2: 8.6
P. falciparum 3D7
  EC50: 235 ± 34 nM
P. falciparum Dd2 [1]; P. falciparum Dd2 EC50/P. falciparum 3D7 EC50
  Resistance Index (RI): 1.6
P. falciparum Dd2 [1]; read-out: Antiplasmodial Activity Dd2 EC50, ring stage parasites, 72 h
  EC50: 372 ± 37 nM
P. falciparum Dd2 [1]
  fold loss of antiplasmodial potency: 6 fold
MCF7
  EC50: 5220 ± 517 nM
MCF7; MCF7 EC50/P. falciparum Dd2 EC50
  Selectivity Index (SI) MCF7: 14

## CCN1CCN(Cc2ccc(NC(=O)c3cc(Cl)cc(NC(=O)c4cncc(-c5cccs5)c4)c3)cc2C(F)(F)F)CC1 [Compound 1, N-(3-Chloro-5-((4-((4-ethylpiperazin-1-yl)methyl)-3-(trifluoromethyl)phenyl)carbamoyl)phenyl)-5-(thiophen-2-yl)nicotinamide]
Synchronized Dd2 culture; 5 × EC50 added at 6 HPI
  stage specific effect: parasites seemed to remain stunted in the ring stage
Synchronized Dd2 culture; 5 × EC50 added at 42 HPI
  stage specific effect: the effect was much less pronounced
Synchronized Dd2 culture; 5 × EC50 applied at both 18 and 30 HPI
  stage specific effect: there was a delayed shift, and parasites were clearly malformed
P. falciparum Dd2-B2
  parasite recovery under continuous treatment: failed to recover within 50 days
P. falciparum Dd2 [2]
  fold increase in antiplasmodial activity: over 48 fold
[3]
  99.9% parasite clearance time (PCT): less than 32 h
  lag phase: no lag phase detected
[4]
  ring stage survival: notably higher than that of the DHA-treated cultures
[5]
  microsomal stability and clearance: suitable microsomal stability and low clearance
Caco-2 cells
  cell permeability: poor
[6]
  S (10) selectivity score: 0.035
[7]
  survival in piperaquine survival assay: did not survive the 48 h treatment
[8]
  parasite recovery after treatment: failed to recover within 4 days
[9]
  EC50 values: low nanomolar range
Human EphA2
  fold reduction in human EphA2 activity: ~900 fold
[10]
  cross-resistance, EC50 among resistant lines: no difference
[11]
  solubility: poor

## CCN1CCN(Cc2ccc(NC(=O)c3cc(Cl)cc(NC(=O)c4cccnc4)c3)cc2C(F)(F)F)CC1 [Compound 6, N-(3-Chloro-5-((4-((4-ethylpiperazin-1-yl)methyl)-3-(trifluoromethyl)phenyl)carbamoyl)phenyl)nicotinamide]
[5]
  microsomal stability and clearance: metabolized rapidly
P. falciparum Dd2 [1]
  fold loss of antiplasmodial potency: 3 fold

## CCN1CCN(Cc2ccc(NC(=O)c3cc(Cl)cc(NC(=O)c4ccccc4)c3)cc2C(F)(F)F)CC1 [Compound 8, 3-Benzamido-5-chloro-N-(4-((4-ethylpiperazin-1-yl)-methyl)-3-(trifluoromethyl)phenyl)benzamide]
P. falciparum Dd2 [1]
  further decrease in the potency: 4- to 5 fold

## CCN1CCN(Cc2ccc(NC(=O)c3cc(Cl)cc(NC(=O)c4cccc(-c5cccs5)c4)c3)cc2C(F)(F)F)CC1 [Compound 9, 3-Chloro-N-(4-((4-ethylpiperazin-1-yl)methyl)-3-(trifluoromethyl)phenyl)-5-(3-(thiophen-2-yl)benzamido)-benzamide]
P. falciparum Dd2 [1]
  further decrease in the potency: 4- to 5 fold

## CCN1CCN(Cc2ccc(NC(=O)c3cc(Cl)cc(NC(=O)c4cncc(-c5ccc(C#N)cc5)c4)c3)cc2C(F)(F)F)CC1 [Compound 16, N-(3-Chloro-5-((4-((4-ethylpiperazin-1-yl)methyl)-3-(trifluoromethyl)phenyl)carbamoyl)phenyl)-5-(4-cyanophenyl)nicotinamide]
[3]
  99.9% parasite clearance time (PCT): less than 32 h
  lag phase: no lag phase detected
[4]
  ring stage survival: notably higher than that of the DHA-treated cultures
[7]
  survival in piperaquine survival assay: did not survive the 48 h treatment
[9]
  EC50 values: low nanomolar range

## CCN1CCN(Cc2ccc(NC(=O)c3cc(Cl)cc(Nc4cncc(-c5cccs5)c4)c3)cc2C(F)(F)F)CC1 [Compound 17, 3-Chloro-N-(4-((4-ethylpiperazin-1-yl)methyl)-3-(trifluoromethyl)phenyl)-5-((5-(thiophen-2-yl)pyridin-3-yl)-amino)benzamide]
P. falciparum Dd2 [1]
  fold loss of antiplasmodial potency: 6 fold

## CCN1CCN(Cc2ccc(NC(=O)c3cc(Cl)cc(NCc4cncc(-c5cccs5)c4)c3)cc2C(F)(F)F)CC1 [Compound 18, 3-Chloro-N-(4-((4-ethylpiperazin-1-yl)methyl)-3-(trifluoromethyl)phenyl)-5-(((5-(thiophen-2-yl)pyridin-3-yl)-methyl)amino)benzamide]
P. falciparum Dd2 [1]
  fold loss of antiplasmodial potency: 6 fold

## CCN1CCN(Cc2ccc(NC(=O)c3cc(Cl)cc(NC(=O)c4cncc(-c5cccs5)c4)c3)cc2)CC1 [Compound 22, N-(3-Chloro-5-((4-((4-ethylpiperazin-1-yl)methyl)phenyl)-carbamoyl)phenyl)-5-(thiophen-2-yl)nicotinamide]
[5]
  microsomal stability and clearance: suitable microsomal stability and low clearance

## O=C(Nc1ccnc(N2CCOCC2)c1)c1cc(Cl)cc(NC(=O)c2cncc(-c3cccs3)c2)c1 [Compound 23, N-(3-Chloro-5-((2-morpholinopyridin-4-yl)carbamoyl)-phenyl)-5-(thiophen-2-yl)nicotinamide]
P. falciparum Dd2 [1]
  fold loss of antiplasmodial potency: 13 fold

## CCN1CCN(Cc2ccc(NC(=O)c3cc(NC(=O)c4cncc(-c5cccs5)c4)ccc3F)cc2C(F)(F)F)CC1 [Compound 26, N-(3-((4-((4-Ethylpiperazin-1-yl)methyl)-3-(trifluoromethyl)phenyl)carbamoyl)-4-fluorophenyl)-5-(thiophen-2-yl)nicotinamide]
P. falciparum Dd2 [1]; Plasmodium falciparum, DD2, 72 h, read-out: Antiplasmodial Activity Dd2 EC50 (nM), ring stage parasites, 72 h
  EC50: 867 nM

## CCN1CCN(Cc2ccc(NC(=O)c3cncc(NC(=O)c4cncc(-c5cccs5)c4)c3)cc2C(F)(F)F)CC1 [Compound 30, N-(4-((4-Ethylpiperazin-1-yl)methyl)-3-(trifluoromethyl)-phenyl)-5-(5-(thiophen-2-yl)nicotinamido)nicotinamide]
[5]
  microsomal stability and clearance: metabolized rapidly
P. falciparum Dd2 [1]; compound 30 relative to compound 29
  improvement in both potency and selectivity: more than 7 fold

## CCN1CCN(Cc2ccc(NC(=O)c3cc(Br)cc(NC(=O)c4cncc(-c5cccs5)c4)c3)cc2C(F)(F)F)CC1 [Compound 32, N-(3-Bromo-5-((4-((4-ethylpiperazin-1-yl)methyl)-3-(trifluoromethyl)phenyl)carbamoyl)phenyl)-5-(thiophen-2-yl)nicotinamide]
[5]
  microsomal stability and clearance: suitable microsomal stability and low clearance

## CCN1CCN(Cc2ccc(NC(=O)c3cc(NC(=O)c4cncc(-c5cccs5)c4)cc(C(F)(F)F)c3)cc2C(F)(F)F)CC1 [Compound 33, N-(3-((4-((4-Ethylpiperazin-1-yl)methyl)-3-(trifluoromethyl)phenyl)carbamoyl)-5-(trifluoromethyl)-phenyl)-5-(thiophen-2-yl)nicotinamide]
[5]
  microsomal stability and clearance: suitable microsomal stability and low clearance

## CC1(C)c2nc(-c3ccc(F)cc3)c(Nc3ccc(Cl)cc3)n2CCN1C(=O)CN [GNF179]
[12]
  half-life: 8.9 h

## Cc1cn(-c2cc(NC(=O)c3ccc(C)c(Nc4nccc(-c5cccnc5)n4)c3)cc(C(F)(F)F)c2)cn1 [nilotinib]
Ring stage
  EC50: < 1000 nM
